# Measured values from the supplement of paper PMC10331698.
# ± gives the standard deviation of the averaged measurements.
# Columns and labels:
# Experiment in all cases: level (log10 ratio to DMSO vehicle control); higher = higher biomarker level / cell amount than vehicle control
# [1] = compound: FC(F)(I)C(F)(F)C(F)(F)C(F)(F)C(F)(F)C(F)(F)I [1,6-Diiodoperfluorohexane]; details: 6700 nM; in DMSO
# Procedure: (§1)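 BioMAP Diversity Plus panel of 12 human primary cell co-culture systems (3C, 4H, LPS, SAg, BT, BF4T, BE3C, CASM3C, HDF3CGF, KF3CT, MyoF, Mphg). Compounds were added 1 h before stimulation and left for 24 h (MyoF 48 h; BT 72 h for soluble read-outs or 6 d for IgG). Biomarkers were read by ELISA, cytotoxicity by SRB, PBMC viability and proliferation by Alamar Blue. Each well value was divided by the mean of 8 DMSO control wells on the same plate and log10 transformed; duplicate blinded samples were tested at 4 concentrations.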
# [2] = compound: OCC(F)(F)C(F)(F)C(F)(F)C(F)(F)C(F)(F)C(F)(F)C(F)(F)C(F)(F)C(F)(F)C(F)(F)C(F)(F)F [11:1 Fluorotelomer alcohol]; details: in DMSO
# Procedure: as §1
# [3] = compound: O=S(=O)(OCC(F)(F)F)C(F)(F)C(F)(F)C(F)(F)C(F)(F)F [2,2,2-Trifluoroethyl perfluorobutanesulfonate]; details: in DMSO
# Procedure: as §1
# Perfluoropinacol = compound: OC(C(F)(F)F)(C(F)(F)F)C(O)(C(F)(F)F)C(F)(F)F [Perfluoropinacol]; details: in DMSO
# Procedure: as §1
# [4] = compound: Cc1ccc(S(=O)(=O)OCC(F)(F)C(F)(F)C(F)(F)C(F)(F)C(F)(F)C(F)F)cc1 [1H,1H,7H-Perfluoroheptyl 4-methylbenzenesulfonate]; details: in DMSO
# Procedure: as §1
# [5] = compound: O=C(O)C(F)(F)C(F)(F)C(F)(F)C(F)(F)C(F)(F)C(F)(F)C(F)(F)F [Ammonium perfluorooctanoate]; details: in DMSO
# Procedure: as §1
# [6] = compound: OCC(F)(F)C(F)(F)C(F)(F)C(F)(F)C(F)(F)C(F)(F)C(F)(F)C(F)(F)CO [1H,1H,10H,10H-Perfluorodecane-1,10-diol]; details: in DMSO
# Procedure: as §1
Test System,level (log10) [1],level (log10) ([2]; 1100 nM),level (log10) ([2]; 3300 nM),level (log10) ([2]; 10000 nM),level (log10) ([3]; 6700 nM),level (log10) ([3]; 20000 nM),level (log10) ([3]; 60000 nM),level (log10) (Perfluoropinacol; 6700 nM),level (log10) (Perfluoropinacol; 20000 nM),level (log10) ([4]; 6700 nM),level (log10) ([4]; 20000 nM),level (log10) ([4]; 60000 nM),level (log10) ([5]; 6700 nM),level (log10) ([5]; 20000 nM),level (log10) ([5]; 60000 nM),level (log10) ([6]; 6700 nM),level (log10) ([6]; 20000 nM),level (log10) ([6]; 60000 nM)
KF3CT:MMP-9,-0.136,-0.042 ± 0.0099,-0.071 ± 0.027,-0.0545 ± 0.026,-0.012 ± 0.017,-0.016 ± 0.035,-0.001 ± 0.025,0.01 ± 0.018,-0.0245 ± 0.029,-0.014 ± 0.031,-0.073 ± 0.025,-0.0915 ± 0.03,0.0045 ± 0.018,0.017 ± 0.0099,0.0105 ± 0.023,0.005 ± 0.03,0.0465 ± 0.00071,-0.197
HDF3CGF:Collagen I,0.053,0.438 ± 0.0099,0.471 ± 0.03,0.394 ± 0.062,-0.0325 ± 0.016,-0.0635 ± 0.04,-0.047 ± 0.028,-0.0205 ± 0.0092,-0.0685 ± 0.015,0.025 ± 0.051,0.0485 ± 0.066,0.027 ± 0.052,0.0285 ± 0.019,0.01 ± 0.021,-0.0645 ± 0.088,0.029 ± 0.0014,-0.01 ± 0.025,0.035
KF3CT:IL-1alpha,-0.073,0.0015 ± 0.028,-0.0425 ± 0.0064,-0.021 ± 0.011,-0.011 ± 0.03,-0.003 ± 0.011,0.0195 ± 0.0078,0.0765 ± 0.028,0.155 ± 0.032,-0.053 ± 0.024,-0.01 ± 0.024,0.013 ± 0.038,-0.0065 ± 0.00071,-0.026 ± 0.0071,-0.079 ± 0.025,0.005 ± 0.027,-0.01 ± 0.021,0.109
HDF3CGF:Collagen III,-0.358,0.2 ± 0.0021,0.168 ± 0.057,0.171 ± 0.0042,-0.0265 ± 0.018,-0.0345 ± 0.033,-0.0995 ± 0.037,0.0175 ± 0.0078,-0.0845 ± 0.0064,-0.0605 ± 0.03,-0.0435 ± 0.011,-0.048 ± 0.073,0.0555 ± 0.032,-0.1 ± 0.048,-0.142 ± 0.0021,-0.035 ± 0.0071,-0.094 ± 0.045,-0.438
lMphg:SRB,-0.028,0.0045 ± 0.00071,0.001,-0.0205 ± 0.005,-0.005 ± 0.0071,-0.012 ± 0.0085,-0.008 ± 0.018,-0.0315 ± 0.0035,-0.144 ± 0.0064,0.004 ± 0.013,-0.002 ± 0.0042,-0.0055 ± 0.00071,-0.0125 ± 0.0035,-0.004 ± 0.0028,0.0015 ± 0.005,-0.0025 ± 0.013,-0.014 ± 0.0057,-1.09
3C:CD54/ICAM-1,0.03,0.011 ± 0.03,0.0305 ± 0.028,0.0385 ± 0.018,-0.006 ± 0.0028,-0.0105 ± 0.0021,-0.0095 ± 0.0064,0.0055 ± 0.0021,-0.0005 ± 0.021,0.0085 ± 0.0021,-0.005 ± 0.0085,-0.01 ± 0.02,0.004 ± 0.014,0.0065 ± 0.0064,0.0065 ± 0.00071,-0.01 ± 0.0014,-0.0035 ± 0.005,-0.006
lMphg:CCL2/MCP-1,-0.029,0.0125 ± 0.0078,0.0295 ± 0.035,0.0535 ± 0.0021,-0.0115 ± 0.021,-0.0245 ± 0.022,-0.0405 ± 0.0035,0.0265 ± 0.028,-0.148 ± 0.0014,-0.033 ± 0.0014,-0.0345 ± 0.015,-0.0055 ± 0.026,0.0045 ± 0.016,0.005 ± 0.016,0.0065 ± 0.0021,-0.0125 ± 0.016,-0.0145 ± 0.005,-0.653
HDF3CGF:TIMP-2,-0.012,0.001 ± 0.0042,-0.045 ± 0.016,-0.0325 ± 0.013,0.0105 ± 0.013,0.0375 ± 0.021,0.06 ± 0.0014,-0.0625 ± 0.005,-0.126 ± 0.0021,-0.042 ± 0.081,-0.101 ± 0.053,-0.032 ± 0.035,0.0225 ± 0.015,0.0535 ± 0.039,0.047 ± 0.05,-0.006 ± 0.014,-0.0105 ± 0.00071,-0.095
MyoF:CXCL8/IL-8,0.153,-0.0155 ± 0.035,-0.0145 ± 0.037,0 ± 0.04,-0.003 ± 0.064,0.0405 ± 0.057,0.013 ± 0.09,0.0295 ± 0.005,0.0265 ± 0.012,-0.0065 ± 0.0078,-0.162 ± 0.022,-0.115 ± 0.025,0.019 ± 0.011,0.004 ± 0.017,0.036 ± 0.065,-0.0285 ± 0.0021,-0.033 ± 0.013,0.025
MyoF:TIMP-1,-0.047,0.0095 ± 0.05,0.015 ± 0.048,0.011 ± 0.02,-0.0305 ± 0.042,-0.0235 ± 0.011,-0.056 ± 0.0099,0.006 ± 0.016,-0.021 ± 0.0028,-0.0255 ± 0.044,-0.0575 ± 0.069,-0.0375 ± 0.07,0.004 ± 0.0085,0.012 ± 0.02,0.01 ± 0.033,0.03 ± 0.031,0.078 ± 0.04,0.052
HDF3CGF:EGFR,-0.044,0.034 ± 0.024,0.044 ± 0.064,0.0275 ± 0.083,-0.0215 ± 0.077,-0.022 ± 0.09,0.047 ± 0.03,-0.029 ± 0.057,-0.146 ± 0.038,-0.0165 ± 0.016,-0.056 ± 0.0057,-0.034 ± 0.0028,-0.095 ± 0.14,-0.005 ± 0.05,-0.105 ± 0.087,-0.0015 ± 0.015,0.003 ± 0.023,-0.224
HDF3CGF:SRB,-0.644,-0.0055 ± 0.011,-0.0055 ± 0.016,0.0315 ± 0.036,0.0205 ± 0.012,0.0125 ± 0.029,0.0325 ± 0.035,-0.027 ± 0.0042,-0.0055 ± 0.039,0.0175 ± 0.033,-0.0095 ± 0.026,-0.04 ± 0.055,0.057 ± 0.055,0.078 ± 0.0099,0.0945 ± 0.047,-0.0485 ± 0.021,-0.0255 ± 0.091,-0.224
HDF3CGF:M-CSF,-0.454,0.0115 ± 0.016,0.0095 ± 0.032,-0.003 ± 0.021,-0.009 ± 0.0057,0.0105 ± 0.022,0.0195 ± 0.005,-0.024 ± 0.055,-0.239 ± 0.049,-0.0385 ± 0.0021,-0.0225 ± 0.036,-0.0095 ± 0.013,0.002 ± 0.037,0.034 ± 0.017,-0.049 ± 0.042,0.0095 ± 0.035,0.001 ± 0.038,-0.304
3C:CD62E/E-Selectin,0.005,-0.0125 ± 0.013,0.008 ± 0.0028,0.0155 ± 0.0078,-0.0085 ± 0.013,-0.0385 ± 0.021,-0.0045 ± 0.016,-0.007 ± 0.013,-0.0605 ± 0.03,-0.0085 ± 0.005,-0.03 ± 0.0057,-0.081 ± 0.016,0.006 ± 0.011,-0.007 ± 0.017,0.0085 ± 0.046,-0.0065 ± 0.005,-0.0275 ± 0.0092,-0.082
